Patent publication US8252764B2, “Compositions and methods of use of targeting peptides against placenta and adipose tissues” (priority 2000, dated 2012)
Peptide text beside a SMILES is read from it.

What was measured:
[1] = system: chicken chorioallantoic membrane (CAM); assay: CAM assay for angiogenesis; type: in vivo
Experimental: In vivo angiogenesis was evaluated by a CAM assay (Ribatti et al., 1994). Fertilized eggs from White Leghorn chickens were maintained in constant humidity at 37° C. On the third day of incubation, a square window was opened in the eggshell and 2-3 ml of albumen was removed to detach the developing CAM from the shell. The window was sealed with a glass plate of the same size and the eggs were returned to the incubator. At day 8, 1 mm^3 sterilized gelatin sponges (Gelfoam, Upjohn Co, Kalamazoo, […]) were adsorbed with VEGF-A (20 ng, R&D System) and either […] (SEQ ID NO:56) or control […] (SEQ ID NO:57) peptide (1 mM) in 3 μl PBS and implanted on the top of the growing CAMs under sterile conditions. CAMs were examined daily until day 12 and photographed in ovo with a Leica stereomicroscope. Capillaries emerging from the sponge were counted. The assay was repeated twice.

HUVECs [2] = assay: HUVEC cell growth assay (crystal violet); type: cell-based, human; details: 1 mM, VEGF-A (10 ng/ml)
Experimental: FIG. 34. […] (SEQ ID NO:56) inhibits HUVEC proliferation. Cells were stimulated with VEGF-A (10 ng/ml), and growth was evaluated at the indicated times by a colorimetric assay based on crystal violet staining. Error bars are the standard error of the means of triplicate wells. Each experiment was repeated at least twice with similar results.
HUVECs were seeded in 48-well plates (10^4 cells/well) and allowed to attach for 24 h in complete M199 medium. The cells were then starved in M199 medium containing 2% FCS for 24 h. […] (SEQ ID NO:56) or control […] (SEQ ID NO:57) peptide (1 mM) was added to the wells in medium containing 2% FCS and 10 ng/ml VEGF-A (R&D System, Abingdom, UK). After incubation for the indicated times, cells were fixed in 2.5% glutaraldehyde, stained with 0.1% crystal violet in 20% methanol, and solubilized in 10% acetic acid. All treatments were done in triplicate. Cell growth was evaluated by measuring the O.D. at 590 nm in a microplate reader (Bio-Rad Laboratories, Hercules, Calif.). A calibration curve was established and a linear correlation between O.D. and cell counts was observed between 10^3 and 10^5 cells.

aminopeptidase N = aminopeptidase N (Homo sapiens, UniProt P15144); assay: Aminopeptidase N activity; type: biochemical; details: data not shown
aminopeptidase N, sequence (P15144 whole entry, species assumed): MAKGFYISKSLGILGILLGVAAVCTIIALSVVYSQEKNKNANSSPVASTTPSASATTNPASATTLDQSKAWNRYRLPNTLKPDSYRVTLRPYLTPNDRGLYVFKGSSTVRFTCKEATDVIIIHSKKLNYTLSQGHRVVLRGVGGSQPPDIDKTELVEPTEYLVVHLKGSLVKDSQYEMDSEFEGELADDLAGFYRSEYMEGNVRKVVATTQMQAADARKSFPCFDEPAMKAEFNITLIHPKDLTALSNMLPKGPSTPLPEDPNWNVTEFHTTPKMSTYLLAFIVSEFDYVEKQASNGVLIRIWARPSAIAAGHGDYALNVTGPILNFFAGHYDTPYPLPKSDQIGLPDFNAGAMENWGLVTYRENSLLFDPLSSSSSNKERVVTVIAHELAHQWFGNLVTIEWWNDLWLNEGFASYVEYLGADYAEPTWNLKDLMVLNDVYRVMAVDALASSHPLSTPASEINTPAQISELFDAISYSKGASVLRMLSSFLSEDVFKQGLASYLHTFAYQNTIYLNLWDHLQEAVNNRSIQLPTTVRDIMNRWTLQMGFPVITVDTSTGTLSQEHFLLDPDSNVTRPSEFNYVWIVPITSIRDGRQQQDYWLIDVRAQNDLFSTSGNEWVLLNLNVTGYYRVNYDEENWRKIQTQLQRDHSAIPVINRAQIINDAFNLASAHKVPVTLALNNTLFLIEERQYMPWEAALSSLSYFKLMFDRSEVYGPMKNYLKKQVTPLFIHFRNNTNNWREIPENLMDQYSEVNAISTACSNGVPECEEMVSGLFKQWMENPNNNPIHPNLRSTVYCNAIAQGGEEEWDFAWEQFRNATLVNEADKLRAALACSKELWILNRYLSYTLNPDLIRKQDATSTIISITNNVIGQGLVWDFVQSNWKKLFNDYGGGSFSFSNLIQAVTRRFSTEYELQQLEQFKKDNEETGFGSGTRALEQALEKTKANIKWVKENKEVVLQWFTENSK

SK-RC-49/APA cells = assay: Phage binding specificity assay on SK-RC-49/APA cells; type: cell-based; details: soluble peptide
Experimental: The cell binding assay was performed with an input of 10^9 TU as described for the cell panning. The specificity was confirmed by adding […] (SEQ ID NO:56) peptide to the binding medium in increasing concentrations. For phage binding on immunocaptured APA, wells were blocked for 1 h at room temperature with PBS/3% BSA and incubated with 10^9 TU for 1 h at room temperature in 50 μl PBS/3% BSA. After eight washes in PBS/1% BSA/0.01% Tween-20 and two washes in PBS, phage were rescued by adding 200 μl of exponentially growing K91Kan E. coli. Each experiment was repeated at least three times.

HUVECs [3] = assay: HUVEC chemotaxis assay (Boyden chamber); type: cell-based, human; details: 1 mM, VEGF-A (10 ng/ml), Boyden chamber
Experimental: FIG. 33. […] (SEQ ID NO:56) inhibits HUVEC migration. HUVECs were stimulated with VEGF-A (10 ng/ml). The assay was performed in a Boyden microchemotaxis chamber, and cells were allowed to migrate through an 8-μm pore filter for 5 h at 37° C. […] (SEQ ID NO:57) (control) and […] (SEQ ID NO:56) peptides were tested at 1 mM concentration. Migrated cells were stained and five high-power fields (magnitude 100×) for each microwell were counted. Error bars are the standard error of the means of triplicate microwells.
A cell migration assay was performed in a 48-well microchemotaxis chamber (NeuroProbe, Gaithersburg, Md.) according to Bussolini et al. (1995). Polyvinylpyrrolidone-free polycarbonate filters (Nucleopore, Cambridge, Mass.) with 8-μm pores were coated with 1% gelatin for 10 min at room temperature and equilibrated in M199 medium supplemented with 2% FCS. […] (SEQ ID NO:56) or control […] (SEQ ID NO:57) peptide (1 mM) was placed in the lower compartment of a Boyden chamber in M199 medium supplemented with 2% FCS and 10 ng/ml VEGF-A (R&D System). Subconfluent cultures that had been starved overnight were harvested in PBS containing 2.5 mM EDTA, washed once in PBS, and resuspended in M199 medium containing 2% FCS at a final concentration of 2×10^6 cells/ml. […] Five random high-power fields (magnitude 100×) were counted in each well. […]

HUVECs [4] = assay: Three-dimensional cell culture on Matrigel; type: cell-based, human; details: HUVECs on three-dimensional matrix gel, not shown
Experimental: Matrigel (Collaborative Research, Bedford, Mass.) was added at 100 μl per well to 48-well tissue culture plates and allowed to solidify for 10 min at 37° C. HUVECs were starved for 24 h in M199 medium supplemented with 2% FCS before being harvested in PBS containing 2.5 mM EDTA. 10^4 cells were gently added to each of the triplicate wells and allowed to adhere to the gel coating for 30 min at 37° C. Then, medium was replaced with indicated concentrations of […] (SEQ ID NO:56) or […] (SEQ ID NO:57) peptides in complete medium. The plates were photographed after 24 h with an inverted microscope (Canon). The assay was repeated three times.

Aminopeptidase A (APA) = target: T1, Aminopeptidase A (APA) (Homo sapiens, UniProt Q07075); assay: APA enzyme assay; type: biochemical
T1 construct: transfected with an expression vector encoding full-length APA cDNA; expressed in transfected cells; host or cells: SK-RC-49 renal carcinoma cells, stably transfected (SK-RC-49/APA)
T1 sequence (Q07075 whole entry): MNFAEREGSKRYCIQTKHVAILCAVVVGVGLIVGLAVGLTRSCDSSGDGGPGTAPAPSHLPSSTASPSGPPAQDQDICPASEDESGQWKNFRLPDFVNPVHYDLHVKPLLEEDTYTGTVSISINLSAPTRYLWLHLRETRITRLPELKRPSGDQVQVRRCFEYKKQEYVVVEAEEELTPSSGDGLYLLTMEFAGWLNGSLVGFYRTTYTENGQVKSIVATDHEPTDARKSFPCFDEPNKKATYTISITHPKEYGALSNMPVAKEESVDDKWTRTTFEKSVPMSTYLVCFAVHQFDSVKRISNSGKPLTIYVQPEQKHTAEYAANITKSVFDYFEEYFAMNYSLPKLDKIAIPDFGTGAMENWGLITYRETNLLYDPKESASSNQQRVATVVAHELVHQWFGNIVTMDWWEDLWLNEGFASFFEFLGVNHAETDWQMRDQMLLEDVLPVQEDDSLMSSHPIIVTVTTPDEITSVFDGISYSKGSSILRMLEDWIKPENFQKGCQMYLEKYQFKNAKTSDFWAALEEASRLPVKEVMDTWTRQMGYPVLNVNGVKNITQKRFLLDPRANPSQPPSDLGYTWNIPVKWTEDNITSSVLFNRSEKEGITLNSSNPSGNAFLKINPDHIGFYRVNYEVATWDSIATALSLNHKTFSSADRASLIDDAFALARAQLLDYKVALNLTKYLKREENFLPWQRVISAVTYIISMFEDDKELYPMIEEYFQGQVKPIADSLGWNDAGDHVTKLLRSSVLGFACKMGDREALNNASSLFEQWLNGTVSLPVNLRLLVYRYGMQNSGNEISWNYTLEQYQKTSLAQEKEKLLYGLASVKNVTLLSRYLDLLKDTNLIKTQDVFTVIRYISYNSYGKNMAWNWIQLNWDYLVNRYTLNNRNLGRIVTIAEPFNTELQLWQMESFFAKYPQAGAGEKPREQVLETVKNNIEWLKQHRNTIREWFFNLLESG

CC[C@H](C)[C@H](NC(=O)[C@H](CO)NC(=O)[C@H](CCC(=O)O)NC(=O)[C@H](CS)NC(=O)[C@H](CCC(=O)O)NC(=O)[C@H](CCCNC(=N)N)NC(=O)[C@@H]1CCCN1C(=O)[C@@H](N)CS)C(=O)N[C@@H](CS)C(=O)O (H-CPRECESIC-OH)
inhibition of neovascularization induced by VEGF-A ([1]; 1 mM, number of capillaries emerging from the sponge): 40% | BLOOD VESSEL NUMBERS ([1]; VEGF-A 20 ng, peptide 1 mM, mean and standard error, two experiments): 5.5 ± 1.41 | inhibition of cell proliferation (HUVECs [2]): 50% | effect on aminopeptidase N activity (aminopeptidase N): did not affect the activity | effect on binding of CYNLCIRECESICGADGACWTWCADGCSRSC phage (SK-RC-49/APA cells; data not shown): displaced | competition with CPKVCPRECESNC phage for binding to SK-RC-49/APA cells (SK-RC-49/APA cells; not shown): competed | inhibition of chemotaxis of HUVECs (HUVECs [3]): 70% | formation of capillary-like network (HUVECs [4]): progressive impairment of the formation of this network | IC50 (Aminopeptidase A (APA); SK-RC-49/APA cells, α-glutamyl-p-nitroanilide, 2 h at 37° C., read-out: IC50 for APA enzyme inhibition): 800 µM | reduction of APA enzyme activity (Aminopeptidase A (APA); at the highest concentration tested): 60%
